From PMC2705520, “Inactivation and Unfolding of the Hyperthermophilic Inorganic Pyrophosphatase from Thermus thermophilus by Sodium Dodecyl Sulfate” (2009)
Counter-ions that a name gives are not always drawn. One block for each molecule: values may come before it.

What was measured:
[1] = biological target: T1, Inorganic pyrophosphatase (T-PPase) (Thermus thermophilus, UniProt Q72H95); experiment: PPase activity assay (phosphomolybdate); Lineweaver-Burk and secondary replots, mixed type reversible inhibition; format: biochemical
T1 construct: gene ppa
T1 sequence (Q72H95 1-175): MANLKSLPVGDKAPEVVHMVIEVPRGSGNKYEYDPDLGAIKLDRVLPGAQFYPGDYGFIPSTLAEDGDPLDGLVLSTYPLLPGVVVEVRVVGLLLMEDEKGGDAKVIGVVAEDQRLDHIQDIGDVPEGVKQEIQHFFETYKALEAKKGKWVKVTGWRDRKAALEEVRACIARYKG
Source text: PPase activity assay (phosphomolybdate); Lineweaver-Burk and secondary replots, mixed type reversible inhibition on Inorganic pyrophosphatase (T-PPase) | Then the apparent inhibition constant could be calculated from Equations.

purified protein = substrate: O=P(O)(O)OP(=O)(O)O; experiment: purified protein; details: Mg2+ active site cavity formed by conserved polar residues, with Mg2+ ions

Ki [1]: 3.4 mM
Molecule: CCCCCCCCCCCCOS(=O)(=O)O [Sodium dodecyl sulfate]

B1: Inorganic pyrophosphatase (T-PPase) (Thermus thermophilus HB27) (protein)
chain: T1 sequence (Q72H95 1-175)
Km (purified protein): 0.42 ± 0.04 mM
